Consider 16 compounds from ChEMBL document CHEMBL4828733, “Discovery and In Vivo Anti-inflammatory Activity Evaluation of a Novel Non-peptidyl Non-covalent Cathepsin C Inhibitor” (J Med Chem, 2021).

By logD is commonly meant lipophilicity at a set pH, counting ionised and neutral species. Low readings indicate lower lipophilicity, high ones higher lipophilicity. A word on the MRT: it is a mean duration of stay, worked out from the concentration-time curve. The term bioavailability denotes dose-corrected exposure relative to a reference, in per cent. A lower bioavailability goes with little systemic uptake. Usually AUC stands for concentration integrated over time. Low values mean less exposure, high ones more exposure. As usually defined, the Cmax is the peak of the concentration-time curve. For orientation: Tmax means the time at which the peak concentration occurs. What is called AUC(0-inf) is the area under the concentration-time curve extrapolated to infinity.

The nature of data set [1]: Octanol/water partition coefficient, logP of compound at pH 7.4. Format: physicochemical.
Data set [2] is described as follows: MRT in Sprague-Dawley rat at 10 mg/kg, po measured up to 24 hrs by LC-MS/MS analysis. The note with it: in vivo. Format: ADME, organism-based.
Data set [3] in a line: Oral bioavailability in Sprague-Dawley rat at 10 mg/kg measured up to 24 hrs by LC-MS/MS analysis. Format: ADME, organism-based. The following applies: in vivo.
A short description of data set [4]: AUC (0 to infinitive) in Sprague-Dawley rat at 1 mg/kg, ip measured up to 24 hrs by LC-MS/MS analysis. Format: ADME, organism-based. The arrangement: route intraperitoneal, dose 1 mg/kg, time <=24. The following applies: in vivo.
Data set [5] is described as follows: Cmax in Sprague-Dawley rat at 10 mg/kg, po measured up to 24 hrs by LC-MS/MS analysis. Format: ADME, organism-based. The arrangement: route oral, dose 10 mg/kg, time <=24. The note with it: in vivo.
The nature of data set [6]: Cmax in Sprague-Dawley rat at 1 mg/kg, ip measured up to 24 hrs by LC-MS/MS analysis. The arrangement: route intraperitoneal, dose 1 mg/kg, time <=24. Format: ADME, organism-based. The following applies: in vivo.
A short description of data set [7]: Tmax in Sprague-Dawley rat at 10 mg/kg, po measured up to 24 hrs by LC-MS/MS analysis. Format: ADME, organism-based. The following applies: in vivo.
A short description of data set [8]: MRT in Sprague-Dawley rat at 1 mg/kg, ip measured up to 24 hrs by LC-MS/MS analysis. Format: ADME, organism-based. The following applies: in vivo.
Data set [9] in a line: AUC (0 to infinitive) in Sprague-Dawley rat at 10 mg/kg, po measured up to 24 hrs by LC-MS/MS analysis. Format: ADME, organism-based. The arrangement: route oral, dose 10 mg/kg, time <=24. The note with it: in vivo.
Data set [10] in a line: Acute toxicity in ICR mouse assessed as mortality rate at 1500 mg/kg, po administered as single dose measured after 1 week relative to control. Format: organism-based. The following applies: in vivo, time 1 weeks, read-out: Activity.

As for `FC(F)(F)c1cccc(Nc2nc(Nc3ccc(-c4ccsc4)cn3)ncc2Cl)c1`, the logD in data set [1] came to 2.03.

In data set [1], `FC(F)(F)Oc1cccc(Nc2nc(Nc3ccccc3)ncc2Cl)c1` displayed a logD of 2.65.

On to `CN1CCN(c2ccc(Nc3ncc(Cl)c(Nc4cccc(C(F)(F)F)c4)n3)nn2)CC1`, for which the pH-dependent lipophilicity (logD) in [1] was 1.26.

Compound `CCN1CCN(c2ccc(Nc3ncc(Cl)c(Nc4cccc(C(F)(F)F)c4)n3)nc2)CC1` came in with a logD in data set [1] of 2.18.

For `CN1CCN(c2ccc(Nc3ncc(Cl)c(Nc4cccc(C(F)(F)F)c4)n3)nc2)CC1`, the MRT is 2.68 h in data set [2] and 1.22 h in data set [8]. The compound further gave a logD in data set [1] of 1.87. In data set [3], this compound showed a bioavailability of 16.7%. The same compound yielded an AUC in data set [4] of 249.2 ng·h/mL. The Cmax in data set [5] amounted to 83.5 ng/mL; in [6] it was 458 ng/mL. The Tmax in data set [7] came to 2 h. Further, in data set [9], the AUC(0-inf) is 158 ng·h/mL.

Compound `CN1CCN(c2ncc(Nc3ncc(Cl)c(Nc4cccc(C(F)(F)F)c4)n3)cn2)CC1` gave a logD in data set [1] of 1.89.

As for `CN1CCN(c2ccc(Nc3ncc(Cl)c(Nc4cccc(C(F)(F)F)c4)n3)cc2)CC1`, the logD in [1] was 1.46.

In turn, `FC(F)(F)c1cccc(Nc2nc(Nc3ccccc3)ncc2Cl)c1` had a pH-dependent lipophilicity (logD) in data set [1] of 2.46.

Compound `FC(F)(F)c1cccc(Nc2nc(Nc3ccccn3)ncc2Cl)c1` yielded a logD in data set [1] of 1.4.

As to `CN(C)C1CCN(c2ccc(Nc3ncc(Cl)c(Nc4cccc(C(F)(F)F)c4)n3)nc2)CC1`, in data set [1], the logD was 2.01. The mortality at 168 h in [10] is 70%.

For the compound `FC(F)(F)c1cccc(Nc2nc(Nc3ccc(N4CCNCC4)cn3)ncc2Cl)c1`, the logD in data set [1] turned out to be 1.25.

For the compound `NC1CCN(c2ccc(Nc3ncc(Cl)c(Nc4cccc(C(F)(F)F)c4)n3)nc2)CC1`, in data set [1], the logD was 0.44.

`CN1CCN(c2ccc(Nc3ncc(Cl)c(Nc4cccc(C(F)(F)F)c4)n3)cn2)CC1` gave a pH-dependent lipophilicity (logD) in data set [1] of 1.61.

In the case of `FC(F)(F)c1cccc(Nc2nc(Nc3cccnn3)ncc2Cl)c1`, the logD in [1] turned out to be 2.26.

`FC(F)(F)c1cccc(Nc2nc(Nc3cncnc3)ncc2Cl)c1` showed a logD in data set [1] of 2.01.

Compound `FC(F)(F)c1cccc(Nc2nc(Nc3cccnc3)ncc2Cl)c1` displayed a logD in [1] of 1.26.
